{"source": "the NIST ThermoML archive (doi:10.1021/acs.jced.5b01058)", "details": "Liquid, Ebulliometric method (Recirculating still)", "note": "Numbers after ± are expanded uncertainties.", "data": [{"smiles": "CCC(C)=O", "note": "[butanone]", "values": [{"measurement": "vapor or sublimation pressure", "setting": "350.25 K", "result": "94 ± 0.7", "unit": "kPa"}]}, {"smiles": "CCCCOC(C)=O", "note": "[butyl ethanoate]", "values": [{"measurement": "vapor or sublimation pressure", "setting": "361.85 K", "result": "29.92 ± 0.77", "unit": "kPa"}, {"measurement": "vapor or sublimation pressure", "setting": "364.47 K", "result": "32.95 ± 0.78", "unit": "kPa"}, {"measurement": "vapor or sublimation pressure", "setting": "370.9 K", "result": "41.42 ± 0.79", "unit": "kPa"}, {"measurement": "vapor or sublimation pressure", "setting": "373.32 K", "result": "45.02 ± 0.82", "unit": "kPa"}, {"measurement": "vapor or sublimation pressure", "setting": "380.1 K", "result": "56.43 ± 0.83", "unit": "kPa"}, {"measurement": "vapor or sublimation pressure", "setting": "381.99 K", "result": "60 ± 0.9", "unit": "kPa"}, {"measurement": "vapor or sublimation pressure", "setting": "382.01 K", "result": "60 ± 0.9", "unit": "kPa"}, {"measurement": "vapor or sublimation pressure", "setting": "382.08 K", "result": "60.15 ± 0.87", "unit": "kPa"}, {"measurement": "vapor or sublimation pressure", "setting": "388.06 K", "result": "72.71 ± 0.89", "unit": "kPa"}, {"measurement": "vapor or sublimation pressure", "setting": "391.2 K", "result": "80.09 ± 0.93", "unit": "kPa"}, {"measurement": "vapor or sublimation pressure", "setting": "394.58 K", "result": "88.69 ± 0.96", "unit": "kPa"}, {"measurement": "vapor or sublimation pressure", "setting": "398.35 K", "result": "99.03 ± 1", "unit": "kPa"}, {"measurement": "vapor or sublimation pressure", "setting": "399.09 K", "result": "101.3 ± 1", "unit": "kPa"}]}, {"smiles": "CCCC(=O)OCC", "note": "[ethyl butanoate]", "values": [{"measurement": "vapor or sublimation pressure", "setting": "361.56 K", "result": "35.41 ± 0.79", "unit": "kPa"}, {"measurement": "vapor or sublimation pressure", "setting": "365.24 K", "result": "40.41 ± 0.81", "unit": "kPa"}, {"measurement": "vapor or sublimation pressure", "setting": "371.33 K", "result": "50 ± 0.82", "unit": "kPa"}, {"measurement": "vapor or sublimation pressure", "setting": "373.83 K", "result": "54.4 ± 0.84", "unit": "kPa"}, {"measurement": "vapor or sublimation pressure", "setting": "376.28 K", "result": "58.98 ± 0.83", "unit": "kPa"}, {"measurement": "vapor or sublimation pressure", "setting": "377.21 K", "result": "60 ± 0.9", "unit": "kPa"}, {"measurement": "vapor or sublimation pressure", "setting": "377.23 K", "result": "60 ± 0.9", "unit": "kPa"}, {"measurement": "vapor or sublimation pressure", "setting": "379.65 K", "result": "65.75 ± 0.9", "unit": "kPa"}, {"measurement": "vapor or sublimation pressure", "setting": "384.82 K", "result": "77.2 ± 0.91", "unit": "kPa"}, {"measurement": "vapor or sublimation pressure", "setting": "387.65 K", "result": "84.14 ± 0.94", "unit": "kPa"}, {"measurement": "vapor or sublimation pressure", "setting": "390.23 K", "result": "90.84 ± 0.98", "unit": "kPa"}, {"measurement": "vapor or sublimation pressure", "setting": "393.63 K", "result": "100.4 ± 0.99", "unit": "kPa"}, {"measurement": "vapor or sublimation pressure", "setting": "393.78 K", "result": "101.3 ± 1", "unit": "kPa"}]}, {"smiles": "CCCCCCC", "note": "[heptane]", "values": [{"measurement": "vapor or sublimation pressure", "setting": "368.85 K", "result": "94 ± 0.7", "unit": "kPa"}]}, {"smiles": "CCCCC(=O)OC", "note": "[methyl pentanoate]", "values": [{"measurement": "vapor or sublimation pressure", "setting": "361.82 K", "result": "29.41 ± 0.77", "unit": "kPa"}, {"measurement": "vapor or sublimation pressure", "setting": "366.7 K", "result": "35.06 ± 0.78", "unit": "kPa"}, {"measurement": "vapor or sublimation pressure", "setting": "370.86 K", "result": "40.47 ± 0.79", "unit": "kPa"}, {"measurement": "vapor or sublimation pressure", "setting": "374.53 K", "result": "45.81 ± 0.81", "unit": "kPa"}, {"measurement": "vapor or sublimation pressure", "setting": "378.84 K", "result": "52.83 ± 0.83", "unit": "kPa"}, {"measurement": "vapor or sublimation pressure", "setting": "382.55 K", "result": "59.35 ± 0.75", "unit": "kPa"}, {"measurement": "vapor or sublimation pressure", "setting": "383.29 K", "result": "60 ± 0.8", "unit": "kPa"}, {"measurement": "vapor or sublimation pressure", "setting": "387.18 K", "result": "69.02 ± 0.9", "unit": "kPa"}, {"measurement": "vapor or sublimation pressure", "setting": "391.14 K", "result": "77.71 ± 0.91", "unit": "kPa"}, {"measurement": "vapor or sublimation pressure", "setting": "395.42 K", "result": "88.17 ± 0.94", "unit": "kPa"}, {"measurement": "vapor or sublimation pressure", "setting": "398.03 K", "result": "95.08 ± 0.96", "unit": "kPa"}, {"measurement": "vapor or sublimation pressure", "setting": "400.07 K", "result": "100.4 ± 0.9", "unit": "kPa"}, {"measurement": "vapor or sublimation pressure", "setting": "400.48 K", "result": "101.3 ± 0.9", "unit": "kPa"}]}, {"smiles": "CCCCCCCC", "note": "[octane]", "values": [{"measurement": "vapor or sublimation pressure", "setting": "380.76 K", "result": "60 ± 1", "unit": "kPa"}, {"measurement": "vapor or sublimation pressure", "setting": "380.78 K", "result": "60 ± 1", "unit": "kPa"}, {"measurement": "vapor or sublimation pressure", "setting": "380.82 K", "result": "60 ± 1", "unit": "kPa"}, {"measurement": "vapor or sublimation pressure", "setting": "380.84 K", "result": "60 ± 1", "unit": "kPa"}, {"measurement": "vapor or sublimation pressure", "setting": "380.85 K", "result": "60 ± 1", "unit": "kPa"}, {"measurement": "vapor or sublimation pressure", "setting": "380.87 K", "result": "60 ± 1", "unit": "kPa"}, {"measurement": "vapor or sublimation pressure", "setting": "380.94 K", "result": "60 ± 1", "unit": "kPa"}]}, {"smiles": "CCCCCOC=O", "note": "[pentyl methanoate]", "values": [{"measurement": "vapor or sublimation pressure", "setting": "370.04 K", "result": "33.67 ± 0.8", "unit": "kPa"}, {"measurement": "vapor or sublimation pressure", "setting": "374.41 K", "result": "39.15 ± 0.81", "unit": "kPa"}, {"measurement": "vapor or sublimation pressure", "setting": "377.87 K", "result": "44.06 ± 0.83", "unit": "kPa"}, {"measurement": "vapor or sublimation pressure", "setting": "381.35 K", "result": "49.42 ± 0.86", "unit": "kPa"}, {"measurement": "vapor or sublimation pressure", "setting": "385.08 K", "result": "55.79 ± 0.88", "unit": "kPa"}, {"measurement": "vapor or sublimation pressure", "setting": "387.4 K", "result": "60 ± 0.9", "unit": "kPa"}, {"measurement": "vapor or sublimation pressure", "setting": "387.46 K", "result": "60 ± 0.9", "unit": "kPa"}, {"measurement": "vapor or sublimation pressure", "setting": "387.67 K", "result": "60.5 ± 0.9", "unit": "kPa"}, {"measurement": "vapor or sublimation pressure", "setting": "391.65 K", "result": "68.46 ± 0.94", "unit": "kPa"}, {"measurement": "vapor or sublimation pressure", "setting": "394.01 K", "result": "73.5 ± 0.97", "unit": "kPa"}, {"measurement": "vapor or sublimation pressure", "setting": "396.89 K", "result": "80.16 ± 1", "unit": "kPa"}, {"measurement": "vapor or sublimation pressure", "setting": "399.55 K", "result": "86.56 ± 1", "unit": "kPa"}, {"measurement": "vapor or sublimation pressure", "setting": "402.19 K", "result": "93.45 ± 1.1", "unit": "kPa"}, {"measurement": "vapor or sublimation pressure", "setting": "405.12 K", "result": "101.3 ± 1.1", "unit": "kPa"}]}, {"smiles": "CCCOC(=O)CC", "note": "[propyl propanoate]", "values": [{"measurement": "vapor or sublimation pressure", "setting": "361.75 K", "result": "33.58 ± 0.79", "unit": "kPa"}, {"measurement": "vapor or sublimation pressure", "setting": "367.3 K", "result": "40.92 ± 0.8", "unit": "kPa"}, {"measurement": "vapor or sublimation pressure", "setting": "371.88 K", "result": "47.9 ± 0.81", "unit": "kPa"}, {"measurement": "vapor or sublimation pressure", "setting": "373.82 K", "result": "51.21 ± 0.84", "unit": "kPa"}, {"measurement": "vapor or sublimation pressure", "setting": "378.75 K", "result": "60 ± 1", "unit": "kPa"}, {"measurement": "vapor or sublimation pressure", "setting": "379.07 K", "result": "60.83 ± 0.95", "unit": "kPa"}, {"measurement": "vapor or sublimation pressure", "setting": "383.56 K", "result": "70.32 ± 0.9", "unit": "kPa"}, {"measurement": "vapor or sublimation pressure", "setting": "386.81 K", "result": "77.9 ± 0.93", "unit": "kPa"}, {"measurement": "vapor or sublimation pressure", "setting": "390.13 K", "result": "86.38 ± 0.96", "unit": "kPa"}, {"measurement": "vapor or sublimation pressure", "setting": "392.74 K", "result": "93.37 ± 0.99", "unit": "kPa"}, {"measurement": "vapor or sublimation pressure", "setting": "395.51 K", "result": "101.3 ± 1", "unit": "kPa"}]}]}
